Measured values published in patent publication US20190185479A1, “BICYCLIC NITROGENATED HETEROCYCLIC COMPOUND” (MITSUBISHI TANABE PHARMA CORPORATION, priority 2016, published 2019).

Columns and labels:
Format in all cases: biochemical
hPDE10A = hPDE10A (Homo sapiens, UniProt Q9Y233); assay: PDE10 inhibition assay (IC50), Experimental Example 3; conditions: for IC50: hPDE10A, read-out: PDE inhibition assay IC50, PDE10; for inhibition at 10 µM: at 10 μmol/L, read-out: inhibition rate (%) at prescribed concentration, PDE10
hPDE10A, sequence (Q9Y233 290-1055 limits assumed): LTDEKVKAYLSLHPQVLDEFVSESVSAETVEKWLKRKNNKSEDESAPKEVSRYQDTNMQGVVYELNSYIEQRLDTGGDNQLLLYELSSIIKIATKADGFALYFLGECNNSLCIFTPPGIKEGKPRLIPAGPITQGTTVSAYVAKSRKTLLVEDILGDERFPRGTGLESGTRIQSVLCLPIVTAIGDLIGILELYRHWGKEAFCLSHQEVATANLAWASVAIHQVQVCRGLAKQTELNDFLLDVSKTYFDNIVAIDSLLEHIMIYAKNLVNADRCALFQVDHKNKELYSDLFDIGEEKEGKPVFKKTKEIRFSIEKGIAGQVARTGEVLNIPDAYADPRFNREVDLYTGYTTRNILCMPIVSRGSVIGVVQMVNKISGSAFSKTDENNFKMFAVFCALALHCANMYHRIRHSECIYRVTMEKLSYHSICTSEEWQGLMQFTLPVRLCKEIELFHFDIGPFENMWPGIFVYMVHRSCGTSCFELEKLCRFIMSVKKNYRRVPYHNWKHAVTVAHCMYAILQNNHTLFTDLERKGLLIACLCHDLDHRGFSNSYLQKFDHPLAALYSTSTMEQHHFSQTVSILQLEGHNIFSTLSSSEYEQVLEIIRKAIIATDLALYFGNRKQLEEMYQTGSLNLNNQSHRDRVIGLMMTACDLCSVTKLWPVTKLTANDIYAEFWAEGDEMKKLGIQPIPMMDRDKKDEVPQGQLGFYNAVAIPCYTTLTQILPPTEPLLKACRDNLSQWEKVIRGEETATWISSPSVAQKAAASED
Method in brief: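 Recombinant human enzymes incubated with compound and 3 nmol/L cAMP (final) in Tris-HCl pH 7.5 buffer with MgCl2, BSA, DTT, 2% DMSO final, 60 min at room temperature. Residual cAMP measured by TR-FRET (LANCE Ultra), reaction stopped with 0.5 mmol/L IBMX. IC50 from inhibition relative to no-compound (0%) and no-enzyme (100%) controls.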

hPDE9A = target: T1, hPDE9A (Homo sapiens, UniProt O76083); assay: PDE7 selectivity test (Ki value), Experimental Example 2: hPDE9A; conditions: Ki from IC50 by Cheng-Prusoff, read-out: PDE inhibition constant Ki, PDE9
T1 construct: made in house; host or cells: COS-7 cells
T1 sequence (O76083 whole entry): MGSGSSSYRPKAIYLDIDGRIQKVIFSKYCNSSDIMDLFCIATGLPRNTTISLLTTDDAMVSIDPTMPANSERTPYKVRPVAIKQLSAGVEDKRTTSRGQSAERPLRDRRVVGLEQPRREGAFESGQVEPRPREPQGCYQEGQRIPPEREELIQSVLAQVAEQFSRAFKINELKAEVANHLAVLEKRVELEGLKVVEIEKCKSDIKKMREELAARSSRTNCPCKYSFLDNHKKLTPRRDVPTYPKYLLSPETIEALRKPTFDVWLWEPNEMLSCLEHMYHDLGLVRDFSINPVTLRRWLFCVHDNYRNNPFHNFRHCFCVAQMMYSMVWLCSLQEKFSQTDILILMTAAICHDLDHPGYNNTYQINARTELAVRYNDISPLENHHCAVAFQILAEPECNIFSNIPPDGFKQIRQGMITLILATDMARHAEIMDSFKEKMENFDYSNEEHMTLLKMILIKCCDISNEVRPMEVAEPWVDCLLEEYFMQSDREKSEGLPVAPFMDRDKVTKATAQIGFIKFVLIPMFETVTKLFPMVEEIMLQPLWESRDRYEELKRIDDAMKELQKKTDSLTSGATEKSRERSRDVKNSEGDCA
Method: (§1) hPDE1A, hPDE2A, hPDE3A, hPDE4D, hPDE5A, and hPDE8B were purchased from SB Drug Discovery. hPDE7B was isolated by the same method as [Method for preparing samples 1], and hPDE9A, hPDE10A, and hPDE11A were isolated by the same method as hPDE7B, i.e., isolated from COS-7 cells transfected with plasmids encoding each PDE. PDE6 was purified and isolated from bovine retina (bovine PDE6).
(§2) Prior to the calculation of Ki value, Km value of each PDE against cAMP or cGMP was calculated. Each PDE diluted with an assay buffer so that it would have an appropriate enzyme activity, and six or more concentrations of cAMP or cGMP were reacted at room temperature for 60 minutes. Regarding PDE using cAMP as a substrate, PDELight (trademark) HTS cAMP phosphodiesterase Kit (Lonza) was used to measure a degradation product, 5′-AMP. Also, regarding PDE using cGMP as a substrate, […] of perchloric acid was added to the mixture to stop the reaction, and the resulting mixture was subjected to LC-MS/MS to measure the residual cGMP concentration. The amount of degraded substrate in each substrate concentration was calculated, the concentration of the added substrate was plotted on the horizontal axis, the amount of degraded substrate was plotted on the vertical axis, and Km value was calculated by non-linear regression on the basis of Michaelis-Menten equation. Km value (substrate) of each PDE was hPDE1A: 4.3 (cGMP), hPDE2A: 36 (cAMP), hPDE3A: 0.11 (cAMP), hPDE4D: 0.90 (cAMP), hPDE5A: 3.9 (cGMP), bovine PDE6:9.8 (cGMP), hPDE7B: 0.015 (cAMP), hPDE8B: 0.63 (cAMP), hPDE9A: 0.0037 (cGMP), hPDE10A: 0.051 (cAMP), and hPDE11A: 1.4 (cAMP) μmol/L, respectively.
(§3) Next, PDE inhibition assay of a compound was carried out using each PDE. The PDE inhibition assay was basically carried out by the same enzyme reaction method as [Assay procedure 1], and the degraded amount of cAMP or cGMP was measured by the same method as [Assay procedure 2]. In the assay, a concentration approximated to Km value of each PDE against cAMP or cGMP was used as a substrate concentration. Meanwhile, regarding hPDE5A, hPDE8B, and hPDE9A, IMAP (trademark) FP Phosphodiesterase Evaluation Assay Kit (Molecular Devices) was used to measure the degradation of FAM-cAMP or FAM-cGMP by fluorescence depolarization technique.
(§4) Each compound was evaluated at six or more concentrations with common ratio 10. Each inhibition rate was calculated according to <Method for data calculation 1>, and then each IC50 value was calculated by sigmoid regression. The resulting IC50 value was used in the following Cheng-Prusoff equation to calculate each Ki value. Ki=IC50/(1+[S]/Km), wherein [S] represents a substrate concentration used

hPDE1A = target: T2, hPDE1A (Homo sapiens, UniProt P54750); assay: PDE7 selectivity test (Ki value), Experimental Example 2: hPDE1A; conditions: Ki from IC50 by Cheng-Prusoff, read-out: PDE inhibition constant Ki, PDE1
T2 construct: purchased SB Drug Discovery
T2 sequence (P54750 whole entry): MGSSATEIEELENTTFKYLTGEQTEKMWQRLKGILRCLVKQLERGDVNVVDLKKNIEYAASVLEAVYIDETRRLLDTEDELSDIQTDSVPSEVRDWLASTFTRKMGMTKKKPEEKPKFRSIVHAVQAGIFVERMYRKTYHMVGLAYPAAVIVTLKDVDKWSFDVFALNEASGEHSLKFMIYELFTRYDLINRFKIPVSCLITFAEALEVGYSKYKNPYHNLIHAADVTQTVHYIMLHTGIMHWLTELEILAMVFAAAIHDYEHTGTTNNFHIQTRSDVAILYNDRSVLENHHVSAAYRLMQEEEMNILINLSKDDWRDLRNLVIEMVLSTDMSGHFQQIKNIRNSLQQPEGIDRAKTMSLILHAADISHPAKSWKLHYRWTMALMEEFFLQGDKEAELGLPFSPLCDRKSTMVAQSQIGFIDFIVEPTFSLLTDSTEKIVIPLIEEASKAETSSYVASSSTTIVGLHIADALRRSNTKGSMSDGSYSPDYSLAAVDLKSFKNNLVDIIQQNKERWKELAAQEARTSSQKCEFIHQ
Method: as §1, §2, §3, §4

hPDE11A = target: T3, hPDE11A (Homo sapiens, UniProt Q9HCR9); assay: PDE7 selectivity test (Ki value), Experimental Example 2: hPDE11A; conditions: Ki from IC50 by Cheng-Prusoff, read-out: PDE inhibition constant Ki, PDE11
T3 construct: made in house; host or cells: COS-7 cells
T3 sequence (Q9HCR9 whole entry): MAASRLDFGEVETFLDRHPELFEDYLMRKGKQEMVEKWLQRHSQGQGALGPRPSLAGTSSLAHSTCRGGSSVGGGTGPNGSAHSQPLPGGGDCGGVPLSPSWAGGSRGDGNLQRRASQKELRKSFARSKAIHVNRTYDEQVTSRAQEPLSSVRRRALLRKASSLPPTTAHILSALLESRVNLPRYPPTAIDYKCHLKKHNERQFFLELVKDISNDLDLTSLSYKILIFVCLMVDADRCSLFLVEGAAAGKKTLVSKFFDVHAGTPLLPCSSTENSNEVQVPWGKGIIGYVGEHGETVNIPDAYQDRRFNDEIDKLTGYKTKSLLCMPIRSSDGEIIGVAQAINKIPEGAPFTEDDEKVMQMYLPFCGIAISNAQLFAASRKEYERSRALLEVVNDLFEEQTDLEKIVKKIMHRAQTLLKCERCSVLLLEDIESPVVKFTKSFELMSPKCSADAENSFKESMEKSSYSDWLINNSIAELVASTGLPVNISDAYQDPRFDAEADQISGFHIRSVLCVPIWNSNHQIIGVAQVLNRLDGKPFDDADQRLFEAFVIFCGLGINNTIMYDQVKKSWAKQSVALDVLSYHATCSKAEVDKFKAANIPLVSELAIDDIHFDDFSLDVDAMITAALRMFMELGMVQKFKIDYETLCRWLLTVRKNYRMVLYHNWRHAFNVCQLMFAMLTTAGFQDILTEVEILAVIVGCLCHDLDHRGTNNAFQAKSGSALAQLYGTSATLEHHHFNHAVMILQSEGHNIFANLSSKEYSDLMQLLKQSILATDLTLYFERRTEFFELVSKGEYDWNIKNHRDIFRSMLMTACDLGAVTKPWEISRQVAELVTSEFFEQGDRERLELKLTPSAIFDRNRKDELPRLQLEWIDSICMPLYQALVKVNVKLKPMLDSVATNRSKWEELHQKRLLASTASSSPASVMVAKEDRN
Method: as §1, §2, §3, §4

Structure (SMILES)	IC50 (hPDE10A)	Ki (hPDE9A)	Ki (hPDE1A)	inhibition at 10 µM (hPDE10A)	Ki (hPDE11A)
CC1CCCCC1n1nnc2c(N)ncnc21 (single isomer, unassigned) [Example 191, 3-(cis-2-methylcyclohexyl)-3H-[1,2,3]triazolo[4,5-d]pyrimidin-7-amine]	3.49 µM	> 3.6 µM	39 µM		
Nc1nccn2c(C3CCCCC3)nnc12 [Example 141, 3-cyclohexyl[1,2,4]triazolo[4,3-a]pyrazin-8-amine]		> 0.36 µM	> 5.2 µM	30%	> 5 µM
C[C@@H]1CCC[C@H](c2nnc3c(N)nccn23)C1 [Example 204, 3-[(1S,3R)-3-methylcyclohexyl][1,2,4]triazolo[4,3-a]pyrazin-8-amine]	2.93 µM	> 3.6 µM	8.9 µM		46 µM

More lines, now with the values ahead:

IC50 (hPDE10A)	Ki (hPDE9A)	Ki (hPDE1A)	inhibition at 10 µM (hPDE10A)	Ki (hPDE11A)	Structure (SMILES)
	> 3.6 µM	> 52 µM	27%	29 µM	Nc1ncnc2c1nnn2C1CCCCC1 [Example 3, 3-cyclohexyl-3H-[1,2,3]triazolo[4,5-d]pyrimidin-7-amine]
1.75 µM	> 0.36 µM	> 5.2 µM		> 5 µM	Cc1nc(N)c2nnn(C3CCCCC3)c2n1 [Example 4]
